# Source: patent EP4806892A1, “CEREBLON E3 UBIQUITIN LIGASE INHIBITOR” (GAN & LEE PHARMACEUTICALS CO., LTD., priority 2023, dated 2025)
# pIC50: −log10 of the molar value.
# Experiments:
# Type in all cases: cell-based
# [1] = system: MCF-7 cells; test: MCF-7 cell proliferation inhibition (CCK-8); conditions: Homo sapiens, MCF7, 144 h, 6 days
# Protocol: The complete culture medium required for breast cancer MCF-7 cells (source ATCC) is DMEM (gibco, Product number: 11995-065) basal medium containing 10% fetal bovine serum. MCF-7 cells were seeded in 96-well plates at a density of 800 cells/well, and different concentrations of PROTAC compounds 1-55 provided in the embodiments of the present invention and the positive control sample ARV-471 (source: Inokai) were prepared to treat cells. The cells were incubated at 37 °C and 5% CO2 in a cell culture incubator for 6 days. Cell viability was detected using a CCK-8 kit (Beyotime, Product number: C0040) according to the manufacturer's instructions. The IC50 value of each PROTAC compound for 6 days was calculated using GraphPad Prism software based on the inhibition rate. Table 7: IC50 value for the inhibition of MCF-7 cell proliferation by PROTAC compounds of the present disclosure and positive control sample
# [2] = target: T1, ERα (Homo sapiens, UniProt P03372); test: ERα degradation in T-47D cells (immunoblot); design: host or cells: T-47D; conditions: 10 nM, 4 hours
# T1 sequence (P03372 1-595): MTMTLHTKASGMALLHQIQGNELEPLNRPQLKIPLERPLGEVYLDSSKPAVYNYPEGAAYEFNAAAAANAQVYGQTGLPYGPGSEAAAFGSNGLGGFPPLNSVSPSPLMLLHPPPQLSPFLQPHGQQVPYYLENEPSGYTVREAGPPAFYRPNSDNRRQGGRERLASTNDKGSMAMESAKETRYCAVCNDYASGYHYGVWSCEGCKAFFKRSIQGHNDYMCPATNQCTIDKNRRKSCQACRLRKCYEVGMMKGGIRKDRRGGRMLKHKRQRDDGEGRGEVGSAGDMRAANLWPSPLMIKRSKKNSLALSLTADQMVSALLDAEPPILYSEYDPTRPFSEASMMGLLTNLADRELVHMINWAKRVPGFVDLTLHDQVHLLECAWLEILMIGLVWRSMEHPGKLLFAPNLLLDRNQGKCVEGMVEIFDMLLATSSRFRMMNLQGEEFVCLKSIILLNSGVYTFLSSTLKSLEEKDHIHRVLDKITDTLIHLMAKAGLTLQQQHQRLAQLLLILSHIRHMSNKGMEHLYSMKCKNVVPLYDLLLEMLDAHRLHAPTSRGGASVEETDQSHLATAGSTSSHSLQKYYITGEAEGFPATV
# Protocol: T-47D (ATCC) cells were cultured in PRMI-1640 medium (30-2001, ATCC) containing 10% FBS (10099141C, Gibco) at 37°C and 5% CO2 until they entered the logarithmic growth phase. T-47D cells were seeded onto 6-well plates at a density of 3×10^5 cells per well, and incubated at 37°C with 5% CO2 for 24 hours. After cell attachment, 1 µL of compound in dimethyl sulfoxide solution (final concentration 0.15-1000 nM) was added and the cells were incubated for another 4 hours at 37°C, 5% CO2. After 4 hours, the culture medium was discarded, and each well was washed once with 1 mL of pre-chilled 1× DPBS. The cells were then lysed with 50 µL of RIPA lysis buffer (P0013B, Beyotime) and 1× protease inhibitor cocktail (P1005, Beyotime). After incubation on ice for 20 minutes, the cells were centrifuged at 14,000 g at 4°C for 30 minutes. The supernatant was carefully collected and analyzed for ERα protein levels by immunoblotting.
# [3] = target: T1, ERα; test: ERα degradation in MCF-7 cells (Western blot); conditions: 10 nM, 4 hours
# Protocol: MCF-7 (ATCC) cells were cultured in DMEM medium (11995-065, Gibco) containing 10% FBS (10099141C, Gibco) at 37°C and 5% CO2 until they entered the logarithmic growth phase. MCF-7 cells were seeded at a density of 3×10^5 cells/well in a 6-well plate and incubated at 37°C, 5% CO2 for 24 hours. After cell attachment, 1 µL of compound in dimethyl sulfoxide solution (final concentration 0.15-1000 nM) was added and the cells were incubated for another 4 hours at 37°C, 5% CO2. After 4 hours, the culture medium was discarded, and each well was washed once with 1 mL of pre-chilled 1× DPBS. […] The supernatant was carefully collected and analyzed for ERα protein levels by immunoblotting.
# Western blotting: The total protein concentration in the collected cell lysate supernatant was determined using the BCA protein concentration assay kit (enhanced) (P0009, Beyotime). Based on the total protein concentration determined by BCA, the protein concentration was adjusted to 1 µg/µL using RIPA lysis buffer and 5× SDS-PAGE protein loading buffer (MB01015, GenScript). […] Protein maps were analyzed for grayscale values using Image Studio Lite software. The grayscale correction value for each sample was calculated using the formula: grayscale correction value = grayscale value of the target protein / grayscale value of the corresponding internal reference. […]
# [4] = system: T-47D cells; test: T-47D cell proliferation inhibition (CCK-8); conditions: Homo sapiens, T47D, 144 h, 6 days
# Protocol: The complete culture medium required for breast ductal carcinoma T-47D cells is 1640 (ATCC, Product number: A10491-01) basal medium containing 10% fetal bovine serum. T-47D cells were seeded in 96-well plates at a density of 3,000/well, and different concentrations of PROTAC compounds 1-55 provided in the embodiments of the present invention and the positive control sample ARV-471 (source: Inokai) were prepared to treat the cells and incubated at 37°C, 5% CO2 in a cell culture incubator for 6 days. According to the manufacturer's instructions, the CCK-8 kit (Beyotime, Product number: C0040) was used to detect cell viability. The IC50 of each compound for 6 days was calculated using GraphPadPrism software based on the inhibition rate. Table 6: IC50 value for the inhibition of T-47D cell proliferation by PROTAC compounds and positive control sample
degradation rate of ERα in MCF-7 cells [3],pIC50 [4],SMILES,pIC50 [1],degradation rate of ERα in T-47D cells [2]
–,–,"O=C1CCN(c2ccc3c(c2)CC2(CCN(C[C@H]4CC[C@@H](OC5CCN(c6ccc([C@@H]7c8ccc(O)cc8CC[C@@H]7c7ccccc7)cc6)CC5)CC4)CC2)O3)C(=O)N1 [ER-P-1, 1-(1'-(((1S,4S)-4-((1-(4-((1R,2S)-6-hydroxy-2-phenyl-1,2,3,4-tetrahydro-naphthalen-1-yl)phenyl)piperidin-4-yl)oxy)cyclohexyl)methyl)-3H-spiro [benzofuran-2,4'-piperidine]-5-yl)dihydropyrimidine-2,4(1H,3H)-dione]",6.07,greater than or equal to 30%
greater than or equal to 30%,7.66,"O=C1CCN(c2ccc3c(c2)OCC[C@H]2CN(C[C@H]4CC[C@@H](OC5CCN(c6ccc([C@@H]7c8ccc(O)cc8CC[C@@H]7c7ccccc7)cc6)CC5)CC4)CCN32)C(=O)N1 [ER-P-2, 1-((S)-3-(((1S,4R)-4-((1-(4-((1R,2S)-6-hydroxy-2-phenyl-1,2,3,4-tetrahydronaphthalen-1-yl)phenyl)piperidin-4-yl)oxy)cyclohexyl)methyl)-2,3,4,4a,5,6-hexahydro-1H-benzo[b]pyrazino[1,2-d][1,4]oxazepin-9-yl)dihydropyrimidine-2,4(1H,3H)-dione]",–,–
